Here are results for four molecules from patent publication US5922580A, “Non-reducing saccharide-forming enzyme, its preparation and uses” (priority 1992, dated 1999).

Data set [1] addresses T1, α-glucosidase specimen derived from rice (Oryza sativa subsp. japonica, UniProt Q653V7).
T1 construct: purchased Sigma Chemical Company, St. Louis, USA; host or cells: rice
Description: Hydrolysis by α-glucosidase. It counts as biochemical. As to conditions: 50 mM acetate buffer pH 4.0, 37° C., 18 hours. On the procedure:
(§1) The enzymatic reaction with the α-amylase was as follows: Dissolving 10 mg of a substrate in one ml of 50 mM phosphate buffer (pH 6.9), mixing the resultant solution with one unit of the α-amylase, and incubating the resultant mixture at 37° C. for 18 hours. The enzymatic reaction with the α-glucosidase was conducted under the same conditions as in the case of α-amylase except that 50 mM acetate buffer (pH 4.0) was used as a buffer. The enzymatic reaction with the rat intestinal acetone powder was carried out under the same conditions as in the case of α-amylase except that 50 mM maleate buffer (pH 6.0) was used as a buffer.

The nature of data set [2]: Reducing power by Somogyi-Nelson's method expressed as DE. As to conditions: high-purity saccharide preparations of Experiment 4. It counts as physicochemical. On the procedure: The reducing powders of these novel saccharides were determined on the Somogyi-Nelson's method and expressed by DE (dextrose equivalent).
Data set [3] concerns 7-week old dd-strain mice. Description: Acute toxicity test, oral. It is filed as in vivo. As to conditions: for Death of mice: oral, highest possible doses.
A further data set concerns the target β-amylase (Glycine max, UniProt P10538). Put plainly: Hydrolysis by β-amylase. It is filed as biochemical. As to conditions: similarly as with glucoamylase.
A short description of data set [4]: Maillard reaction with glycine. It counts as physicochemical. As to conditions: for Coloration degree (480 nm): 1% glycine, 10% saccharide, 50 mM phosphate buffer pH 7.0, 100° C. for 90 min, absorbance in 1-cm cell; for Coloration degree relative to corresponding material maltooligosaccharide: Maillard reaction, 480 nm. On the procedure: As a control, maltotriose, maltotetraose, maltopentaose, maltohexaose and maltoheptaose as a material for the saccharide preparations were similarly treated as above, and measured their absorbances were measured at a wave length of 480 nm.

Data set [5] deals with rat intestinal acetone powder. Description: Hydrolysis by rat intestinal acetone powder. It counts as in vitro ADME. As to conditions: 50 mM maleate buffer pH 6.0, 37° C., 18 hours. On the procedure:
as §1

The next data set concerns glucoamylase. Put plainly: Enzymatic hydrolysis by glucoamylase. As to conditions: for Glucose / Trehalose: 50 mg in 1 ml 50 mM acetate buffer pH 4.5, one unit glucoamylase, 40° C., 6 hours, HPLC; for Molecular ratio (Glucose/Trehalose): glucoamylase hydrolysate. It is filed as biochemical. On the procedure: Fifty mg aliquots of non-reducing saccharides P I, P II, P III, P IV and P V in Experiment 4 were respectively dissolved in one ml of 50 mM acetate buffer (pH 4.5), admixed with one unit of glucoamylase commercialized by Seikagaku-Kogyo Co., Ltd., Tokyo, Japan, to effect enzymatic hydrolysis at 40° C. for 6 hours. The only saccharides detected in every resultant mixture on HPLC analysis were glucose and trehalose.

Data set [6] deals with T2, α-amylase specimen derived from pig pancreas (Sus scrofa, UniProt P00690).
T2 construct: purchased Sigma Chemical Company, St. Louis, USA; host or cells: pig pancreas
T2 sequence (P00690 16-511): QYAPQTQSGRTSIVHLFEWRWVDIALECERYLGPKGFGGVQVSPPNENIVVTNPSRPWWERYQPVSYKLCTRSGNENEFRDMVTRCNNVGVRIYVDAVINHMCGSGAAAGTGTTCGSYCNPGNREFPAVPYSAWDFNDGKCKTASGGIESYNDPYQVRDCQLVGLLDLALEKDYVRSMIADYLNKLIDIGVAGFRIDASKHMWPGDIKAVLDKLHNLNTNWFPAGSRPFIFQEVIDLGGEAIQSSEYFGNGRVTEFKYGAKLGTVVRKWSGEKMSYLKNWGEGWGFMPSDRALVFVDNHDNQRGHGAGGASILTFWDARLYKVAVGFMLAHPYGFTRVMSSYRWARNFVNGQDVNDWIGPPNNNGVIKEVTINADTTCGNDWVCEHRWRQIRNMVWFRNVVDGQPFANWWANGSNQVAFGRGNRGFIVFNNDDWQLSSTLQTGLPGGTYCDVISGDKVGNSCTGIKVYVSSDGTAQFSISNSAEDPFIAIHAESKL
Put plainly: Hydrolysis by α-amylase. It is filed as biochemical. The arrangement: Saccharide composition of hydrolysate: P I / Saccharide composition of hydrolysate: P II / Saccharide composition of hydrolysate: G3 (maltotriose) / Saccharide composition of hydrolysate: G2 (maltose) / Saccharide composition of hydrolysate: G1 (glucose): unit not given here. As to conditions: for Hydrolysis by α-amylase: conclusion from Table 6; for Saccharide composition of hydrolysate: G1 (glucose) / Saccharide composition of hydrolysate: G2 (maltose) / Saccharide composition of hydrolysate: G3 (maltotriose) / Saccharide composition of hydrolysate: P I / Saccharide composition of hydrolysate: P II: α-amylase, 10 mg/ml, pH 6.9, 37° C., 18 hours, HPLC. On the procedure:
as §1

Bounds are passed on as bounds.

T1 sequence (Q653V7 34-885): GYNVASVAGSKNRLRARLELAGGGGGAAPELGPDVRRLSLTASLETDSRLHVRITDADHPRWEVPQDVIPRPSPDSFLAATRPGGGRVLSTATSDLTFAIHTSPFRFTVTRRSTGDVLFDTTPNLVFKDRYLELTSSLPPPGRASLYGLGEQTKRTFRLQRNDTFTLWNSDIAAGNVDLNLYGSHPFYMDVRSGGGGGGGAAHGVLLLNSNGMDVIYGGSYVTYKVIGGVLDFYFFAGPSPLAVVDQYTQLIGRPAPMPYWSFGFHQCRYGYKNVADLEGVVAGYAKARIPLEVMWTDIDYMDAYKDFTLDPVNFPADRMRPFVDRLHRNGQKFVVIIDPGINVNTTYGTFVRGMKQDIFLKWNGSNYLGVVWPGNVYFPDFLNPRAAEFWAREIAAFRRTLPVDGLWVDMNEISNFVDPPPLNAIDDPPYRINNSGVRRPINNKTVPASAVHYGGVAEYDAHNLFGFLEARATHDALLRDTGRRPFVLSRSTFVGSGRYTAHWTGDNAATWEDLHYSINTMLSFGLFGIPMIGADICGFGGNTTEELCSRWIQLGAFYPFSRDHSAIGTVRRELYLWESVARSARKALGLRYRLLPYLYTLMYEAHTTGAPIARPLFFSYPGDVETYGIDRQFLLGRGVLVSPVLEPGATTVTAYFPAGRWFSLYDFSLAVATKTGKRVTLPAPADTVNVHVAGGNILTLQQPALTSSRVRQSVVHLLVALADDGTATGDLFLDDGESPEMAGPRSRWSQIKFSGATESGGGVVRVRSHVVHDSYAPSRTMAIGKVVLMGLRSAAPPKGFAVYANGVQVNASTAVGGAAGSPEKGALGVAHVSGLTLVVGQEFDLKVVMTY
Sequence of β-amylase (P10538 whole entry, species assumed): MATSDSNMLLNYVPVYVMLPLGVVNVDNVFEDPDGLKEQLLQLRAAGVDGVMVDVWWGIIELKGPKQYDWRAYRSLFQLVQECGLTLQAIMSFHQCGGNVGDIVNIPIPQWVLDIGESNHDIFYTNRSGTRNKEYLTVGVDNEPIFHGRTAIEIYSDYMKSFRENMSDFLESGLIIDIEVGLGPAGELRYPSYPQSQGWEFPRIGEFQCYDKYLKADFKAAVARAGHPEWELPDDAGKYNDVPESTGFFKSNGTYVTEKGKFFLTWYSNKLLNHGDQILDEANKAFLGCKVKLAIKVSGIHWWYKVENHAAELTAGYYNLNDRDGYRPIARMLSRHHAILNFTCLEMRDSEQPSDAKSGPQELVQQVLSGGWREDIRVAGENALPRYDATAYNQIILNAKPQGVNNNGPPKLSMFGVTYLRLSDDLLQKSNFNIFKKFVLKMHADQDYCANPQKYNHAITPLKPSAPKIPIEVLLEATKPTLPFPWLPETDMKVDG

Regarding `OC[C@H]1O[C@H](O[C@H]2O[C@H](CO)[C@@H](O[C@H]3O[C@H](CO)[C@@H](O[C@H]4O[C@H](CO)[C@@H](O)[C@H](O)[C@H]4O)[C@H](O)[C@H]3O)[C@H](O)[C@H]2O)[C@H](O)[C@@H](O)[C@@H]1O` [P II, α-maltosyl trehalose], in data set [1], the “Saccharide composition of hydrolysate with α-glucosidase: Glucose” value is on record as 52.1%, the “Saccharide composition of hydrolysate with α-glucosidase: Other saccharides” value worked out at 0.3% and the “Saccharide composition of hydrolysate with α-glucosidase: Trehalose” value was 47.6%. Further, in data set [2], the DE was 0.35. Also, in data set [3], the Death of mice entry is “no mouse died”. The “Hydrolysis by β-amylase” value on β-amylase was “not hydrolyzed”. Besides, in data set [4], the “Coloration degree (480 nm)” value stood at 0.018 and the “Coloration degree relative to corresponding material maltooligosaccharide” value was 3-6%. Besides, in data set [5], the “Saccharide composition of hydrolysate with rat intestinal acetone powder: Glucose” value is 52.5%, the “Saccharide composition of hydrolysate with rat intestinal acetone powder: Other saccharides” value was found to be 0.4% and the “Saccharide composition of hydrolysate with rat intestinal acetone powder: Trehalose” value was 47.1%. In the data set with glucoamylase, the Glucose is 52.0%, the Trehalose worked out at 48.0% and the “Molecular ratio (Glucose/Trehalose)” value came to 2.06. Further, in data set [6], the “Hydrolysis by α-amylase” value is on record as “not substantially hydrolyzed”, the “Saccharide composition of hydrolysate: G1 (glucose)” value (“Saccharide composition … (glucose)” below) was found to be 0, the “Saccharide composition of hydrolysate: G2 (maltose)” value (from here on “Saccharide composition … (maltose)”) is reported as 0.8 and the “Saccharide composition of hydrolysate: G3 (maltotriose)” value (shortened to “Saccharide composition … (maltotriose)”) is 0.4. In data set [6], the “Saccharide composition of hydrolysate: P I” value came out at 0 and the “Saccharide composition of hydrolysate: P II” value (“Saccharide composition … P II” below) is reported as 98.8.
The term LD50 denotes the dose at which mortality reaches 50%. Turning to `OC[C@H]1O[C@H](O[C@H]2O[C@H](CO)[C@@H](O[C@H]3O[C@H](CO)[C@@H](O[C@H]4O[C@H](CO)[C@@H](O[C@H]5O[C@H](CO)[C@@H](O[C@H]6O[C@H](CO)[C@@H](O[C@H]7O[C@H](CO)[C@@H](O)[C@H](O)[C@H]7O)[C@H](O)[C@H]6O)[C@H](O)[C@H]5O)[C@H](O)[C@H]4O)[C@H](O)[C@H]3O)[C@H](O)[C@H]2O)[C@H](O)[C@@H](O)[C@@H]1O` [P V, α-maltopentaosyl trehalose], in data set [1], the “Saccharide composition of hydrolysate with α-glucosidase: Glucose” value is listed as 71.4%, the “Saccharide composition of hydrolysate with α-glucosidase: Other saccharides” value came out at 0.3% and the “Saccharide composition of hydrolysate with α-glucosidase: Trehalose” value amounted to 28.3%. Besides, the DE in data set [2] was 0.23. This molecule also returned an LD50 in data set [3] (mouse, in vivo, po) not below 50000 mg/kg. Moreover, the Death of mice result in data set [3] is “no mouse died”. In addition, on β-amylase, the “Hydrolysis by β-amylase” value was “two moles of maltose and one mole of P I”. In data set [4], the “Coloration degree (480 nm)” value was 0.015 and the “Coloration degree relative to corresponding material maltooligosaccharide” value is on record as 3-6%. Moreover, in data set [5], the “Saccharide composition of hydrolysate with rat intestinal acetone powder: Glucose” value was found to be 73.4%, the “Saccharide composition of hydrolysate with rat intestinal acetone powder: Other saccharides” value was determined as 0.1% and the “Saccharide composition of hydrolysate with rat intestinal acetone powder: Trehalose” value came out at 26.5%. Moreover, in the data set with glucoamylase, the Glucose stood at 72.9%, the Trehalose is 27.1% and the “Molecular ratio (Glucose/Trehalose)” value is 5.11. In addition, in data set [6], the “Hydrolysis by α-amylase” value is “hydrolyzed by α-amylase into lower molecular weight oligosaccharides”, the “Saccharide composition … (glucose)” value amounted to 1.0, the “Saccharide composition … (maltose)” value turned out to be 8.6 and the “Saccharide composition … (maltotriose)” value worked out at 35.3. Further, in data set [6], the “Saccharide composition of hydrolysate: P I” value came to 10.2 and the “Saccharide composition … P II” value is reported as 44.9.
Regarding `OC[C@H]1O[C@H](O[C@H]2O[C@H](CO)[C@@H](O[C@H]3O[C@H](CO)[C@@H](O[C@H]4O[C@H](CO)[C@@H](O[C@H]5O[C@H](CO)[C@@H](O)[C@H](O)[C@H]5O)[C@H](O)[C@H]4O)[C@H](O)[C@H]3O)[C@H](O)[C@H]2O)[C@H](O)[C@@H](O)[C@@H]1O` [P III, α-maltotriosyl trehalose], in data set [1], the “Saccharide composition of hydrolysate with α-glucosidase: Glucose” value turned out to be 61.7%, the “Saccharide composition of hydrolysate with α-glucosidase: Other saccharides” value was found to be 0.2% and the “Saccharide composition of hydrolysate with α-glucosidase: Trehalose” value was 38.1%. In addition, the DE in data set [2] came to 0.10. For the same molecule, in data set [3], the Death of mice result is reported as “no mouse died”. For the same molecule, the “Hydrolysis by β-amylase” value on β-amylase is “one mole of maltose and one mole of P I”. In data set [4], the “Coloration degree (480 nm)” value is on record as 0.012 and the “Coloration degree relative to corresponding material maltooligosaccharide” value is on record as 3-6%. Besides, in data set [5], the “Saccharide composition of hydrolysate with rat intestinal acetone powder: Glucose” value is recorded as 62.0%, the “Saccharide composition of hydrolysate with rat intestinal acetone powder: Other saccharides” value is 0.4% and the “Saccharide composition of hydrolysate with rat intestinal acetone powder: Trehalose” value worked out at 37.6%. Further, in the data set with glucoamylase, the Glucose was 61.4%, the Trehalose is recorded as 38.6% and the “Molecular ratio (Glucose/Trehalose)” value came to 3.02. In addition, in data set [6], the “Hydrolysis by α-amylase” value was “hydrolyzed by α-amylase into lower molecular weight oligosaccharides”, the “Saccharide composition … (glucose)” value is given as 1.2, the “Saccharide composition … (maltose)” value turned out to be 33.0 and the “Saccharide composition … (maltotriose)” value came to 0. Also, in data set [6], the “Saccharide composition of hydrolysate: P I” value is 61.0 and the “Saccharide composition … P II” value was 4.8.
For `OC[C@H]1O[C@H](O[C@H]2O[C@H](CO)[C@@H](O[C@H]3O[C@H](CO)[C@@H](O)[C@H](O)[C@H]3O)[C@H](O)[C@H]2O)[C@H](O)[C@@H](O)[C@@H]1O` [P I, α-glucosyl trehalose], in data set [1], the “Saccharide composition of hydrolysate with α-glucosidase: Glucose” value is given as 36.5%, the “Saccharide composition of hydrolysate with α-glucosidase: Other saccharides” value came to 0.5% and the “Saccharide composition of hydrolysate with α-glucosidase: Trehalose” value is 63.0%. The molecule further registered a DE in data set [2] of 0.83. For the same molecule, the Death of mice entry in data set [3] is reported as “no mouse died”. Moreover, the “Hydrolysis by β-amylase” value at β-amylase was “not hydrolyzed”. In data set [4], the “Coloration degree (480 nm)” value was determined as 0.027 and the “Coloration degree relative to corresponding material maltooligosaccharide” value is 3-6%. For the same molecule, in data set [5], the “Saccharide composition of hydrolysate with rat intestinal acetone powder: Glucose” value was determined as 37.2%, the “Saccharide composition of hydrolysate with rat intestinal acetone powder: Other saccharides” value came to 0.4% and the “Saccharide composition of hydrolysate with rat intestinal acetone powder: Trehalose” value is given as 62.4%. Moreover, in the data set with glucoamylase, the Glucose is reported as 36.2%, the Trehalose is recorded as 63.8% and the “Molecular ratio (Glucose/Trehalose)” value amounted to 1.07. Further, in data set [6], the “Hydrolysis by α-amylase” value is “not substantially hydrolyzed”, the “Saccharide composition … (glucose)” value turned out to be 0, the “Saccharide composition … (maltose)” value is 0.4 and the “Saccharide composition … (maltotriose)” value came out at 2.3. Besides, in data set [6], the “Saccharide composition of hydrolysate: P I” value was 97.3 and the “Saccharide composition … P II” value came out at 0.
